# How the values were obtained:
# rat native α7 receptors = target: T1, rat native α7 receptors (Rattus norvegicus, UniProt Q05941); assay: [3H]MLA radioligand binding, α7 NNR subtype, rat hippocampal membranes; details: read-out: Ki, inhibition of [3H]methyllycaconitine (MLA) binding to rat native α7 receptors
# T1 construct: rat native α7 receptors in rat hippocampal membranes; from tissue; host or cells: rat (female Sprague-Dawley) hippocampus membranes
# Description: Rats (female, Sprague-Dawley), weighing 150-250 g, were maintained on a 12 h light/dark cycle and were allowed free access to water and food supplied by PMI Nutrition International, Inc. Animals were anesthetized with 70% CO2, and then decapitated. Brains were removed and placed on an ice-cold platform. The hippocampus was removed and placed in 10 volumes (weight:volume) of ice-cold preparative buffer (137 mM NaCl, 10.7 mM KCl, 5.8 mM KH2PO4, 8 mM Na2HPO4, 20 mM HEPES (free acid), 5 mM iodoacetamide, 1.6 mM EDTA, pH 7.4); PMSF, dissolved in methanol to a final concentration of 100 μM, was added and the tissue suspension was homogenized by Polytron. […] Protein was determined by the method of Lowry et al., J. Biol. Chem. 193: 265 (1951), using bovine serum albumin as the standard.
# The binding of [^3H]MLA was measured using a modification of the methods of Davies et al., Neuropharmacol. […] The binding of [^3H]MLA was determined using a 2 h incubation at 21° C. […] Non-specific binding was determined by inclusion of 50 μM non-radioactive MLA in selected wells.
# The inhibition of [^3H]MLA binding by test compounds was determined by including seven different concentrations of the test compound in selected wells. […] Inhibition constants (Ki values), reported in nM, were calculated from the IC50 values using the method of Cheng et al., Biochem. Pharmacol. 22: 3099-3108 (1973).
# [1] = target: T2, human native muscle-type nicotinic receptors (likely α1β1γδ) (Homo sapiens, UniProt P02708+P07510+Q07001); assay: [3H]epibatidine binding, TE-671 membranes
# T2 construct: human native muscle-type nicotinic receptors (likely α1β1γδ); endogenous in cells; host or cells: TE-671
# [2] = Aqueous solubility of salts (salt screen); assay type: physicochemical; details: free base form
# T2 sequence (P07510 23-517): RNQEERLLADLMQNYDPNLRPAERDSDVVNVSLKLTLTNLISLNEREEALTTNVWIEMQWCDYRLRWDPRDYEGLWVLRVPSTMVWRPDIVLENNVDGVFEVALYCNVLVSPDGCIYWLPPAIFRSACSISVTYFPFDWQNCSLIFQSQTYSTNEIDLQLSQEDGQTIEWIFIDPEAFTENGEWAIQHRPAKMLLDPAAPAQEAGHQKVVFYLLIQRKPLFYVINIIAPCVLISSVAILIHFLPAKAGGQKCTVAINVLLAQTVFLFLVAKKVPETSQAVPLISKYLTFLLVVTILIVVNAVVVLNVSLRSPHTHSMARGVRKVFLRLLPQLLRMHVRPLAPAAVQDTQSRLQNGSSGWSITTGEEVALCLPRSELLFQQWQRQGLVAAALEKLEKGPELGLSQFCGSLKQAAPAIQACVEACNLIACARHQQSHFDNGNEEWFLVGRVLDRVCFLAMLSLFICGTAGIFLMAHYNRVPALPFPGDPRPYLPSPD
# T2 sequence (P11230 24-501, further chain): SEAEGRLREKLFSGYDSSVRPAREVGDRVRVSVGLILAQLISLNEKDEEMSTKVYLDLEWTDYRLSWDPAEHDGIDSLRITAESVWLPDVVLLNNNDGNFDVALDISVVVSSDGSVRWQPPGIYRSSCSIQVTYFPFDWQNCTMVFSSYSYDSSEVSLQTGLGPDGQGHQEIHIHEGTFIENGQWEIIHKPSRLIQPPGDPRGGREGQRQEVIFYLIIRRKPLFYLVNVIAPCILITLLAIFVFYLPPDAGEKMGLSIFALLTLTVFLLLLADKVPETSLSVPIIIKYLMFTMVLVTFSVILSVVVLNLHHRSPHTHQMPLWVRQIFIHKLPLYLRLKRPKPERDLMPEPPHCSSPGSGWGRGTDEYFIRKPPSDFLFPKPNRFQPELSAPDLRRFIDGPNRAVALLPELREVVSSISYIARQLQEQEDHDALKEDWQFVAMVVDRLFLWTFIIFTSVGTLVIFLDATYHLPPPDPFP
# T2 sequence (P02708 21-457): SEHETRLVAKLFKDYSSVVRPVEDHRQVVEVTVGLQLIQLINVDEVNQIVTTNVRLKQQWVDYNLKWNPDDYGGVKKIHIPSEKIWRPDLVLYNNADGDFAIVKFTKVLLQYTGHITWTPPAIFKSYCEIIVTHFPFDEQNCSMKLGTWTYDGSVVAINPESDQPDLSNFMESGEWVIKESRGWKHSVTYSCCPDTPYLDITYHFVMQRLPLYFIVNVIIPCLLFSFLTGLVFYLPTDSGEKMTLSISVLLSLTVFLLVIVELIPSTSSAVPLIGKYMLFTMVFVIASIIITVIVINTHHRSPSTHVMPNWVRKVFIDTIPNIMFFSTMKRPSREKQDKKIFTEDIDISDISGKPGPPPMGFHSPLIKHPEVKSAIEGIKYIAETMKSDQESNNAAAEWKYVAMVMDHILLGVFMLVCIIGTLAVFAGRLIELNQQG
# T2 sequence (Q07001 22-517): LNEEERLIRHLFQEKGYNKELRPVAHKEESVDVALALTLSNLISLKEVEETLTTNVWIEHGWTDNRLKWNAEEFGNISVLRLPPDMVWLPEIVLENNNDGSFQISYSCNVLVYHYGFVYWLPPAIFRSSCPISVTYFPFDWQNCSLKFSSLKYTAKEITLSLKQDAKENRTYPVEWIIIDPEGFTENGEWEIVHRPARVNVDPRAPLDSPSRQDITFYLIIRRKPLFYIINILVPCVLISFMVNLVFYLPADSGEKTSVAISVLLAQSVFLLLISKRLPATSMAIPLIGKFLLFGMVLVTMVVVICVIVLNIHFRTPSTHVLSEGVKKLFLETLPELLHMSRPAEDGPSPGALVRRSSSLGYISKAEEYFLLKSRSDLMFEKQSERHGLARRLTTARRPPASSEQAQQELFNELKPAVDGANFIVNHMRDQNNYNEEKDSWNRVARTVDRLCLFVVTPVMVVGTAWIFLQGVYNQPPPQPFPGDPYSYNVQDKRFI
# T1 sequence (Q05941 23-502): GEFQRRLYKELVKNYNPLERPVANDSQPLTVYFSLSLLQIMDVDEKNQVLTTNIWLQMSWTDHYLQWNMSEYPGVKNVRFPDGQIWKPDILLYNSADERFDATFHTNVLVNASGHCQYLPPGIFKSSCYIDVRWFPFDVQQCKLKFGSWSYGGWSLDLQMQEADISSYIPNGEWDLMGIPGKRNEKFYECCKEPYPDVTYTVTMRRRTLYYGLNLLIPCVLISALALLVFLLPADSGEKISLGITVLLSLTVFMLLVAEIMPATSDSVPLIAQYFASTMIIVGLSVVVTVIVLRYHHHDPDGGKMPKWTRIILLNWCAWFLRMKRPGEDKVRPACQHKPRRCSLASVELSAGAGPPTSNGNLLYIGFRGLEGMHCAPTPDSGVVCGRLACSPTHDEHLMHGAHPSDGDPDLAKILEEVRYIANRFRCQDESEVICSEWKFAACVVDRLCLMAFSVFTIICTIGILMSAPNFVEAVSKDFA
smiles,measurement,setting,value
O=C(N[C@@H]1C2CCN(CC2)[C@H]1Cc1cccnc1)c1cc(F)cc(F)c1 [Compound A],Ki,rat native α7 receptors,0.1 µM
same,Ki,[1],136 µM
same,water solubility,[2],limited water solubility
